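Following 48 hours of exposure in 96-well plates, responses at five concentrations were used to interpolate endpoints linearly. GI50: concentration for 50% inhibition of growth.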 The source made the active and inactive calls. Rule as the data show it: active = GI50 up to about 1.1 µM and inactive = higher.
Key:
Experiment in all cases: DTP human tumour cell line panel, 48 h
ACHN = test system: ACHN
COLO 205 = test system: COLO 205
HL-60 = test system: HL-60
HOP-62 = test system: HOP-62
IGROV-1 = test system: IGROV-1
KM12 = test system: KM12
LOX IMVI = test system: LOX IMVI
M14 = test system: M14
M19-MEL = test system: M19-MEL
NCI-H460 = test system: NCI-H460
OVCAR-5 = test system: OVCAR-5
SF-539 = test system: SF-539
SK-MEL-5 = test system: SK-MEL-5
SNB-78 = test system: SNB-78
SW-620 = test system: SW-620
UACC-62 = test system: UACC-62
UO-31 = test system: UO-31

Measured: GI50

CN(C)CCS/C(=N\c1ccccc1)n1cccc1
inactive: ACHN 78.5 µM | COLO 205 > 100 µM | HL-60 32.7 µM | HOP-62 25.7 µM | IGROV-1 > 100 µM | KM12 82.8 µM | LOX IMVI 43.5 µM | M14 > 100 µM | M19-MEL 83.9 µM | NCI-H460 > 100 µM | OVCAR-5 > 100 µM | SF-539 66.5 µM | SK-MEL-5 35.9 µM | SNB-78 22.2 µM | SW-620 > 100 µM | UACC-62 82.8 µM | UO-31 32.2 µM

Cc1c(-c2cc(-c3ccccc3)n[nH]c2=O)c2ccccc2n1C
inactive: ACHN > 100 µM | COLO 205 > 100 µM | HL-60 > 100 µM | HOP-62 > 100 µM | IGROV-1 > 100 µM | KM12 > 100 µM | M14 > 100 µM | M19-MEL > 100 µM | NCI-H460 > 100 µM | OVCAR-5 > 100 µM | SF-539 > 100 µM | SK-MEL-5 > 100 µM | SNB-78 > 100 µM | SW-620 > 100 µM | UACC-62 > 100 µM | UO-31 > 100 µM

O=C(NCCCCCCNC(=O)NC1OCC(O)C(O)C1O)NC1OCC(O)C(O)C1O (stereo not given)
inactive: ACHN > 100 µM | COLO 205 > 100 µM | HL-60 > 100 µM | HOP-62 > 100 µM | IGROV-1 > 100 µM | KM12 > 100 µM | LOX IMVI > 100 µM | M14 > 100 µM | M19-MEL > 100 µM | NCI-H460 > 100 µM | OVCAR-5 > 100 µM | SF-539 > 100 µM | SK-MEL-5 > 100 µM | SNB-78 > 100 µM | SW-620 > 100 µM | UACC-62 > 100 µM

CCOC(=O)C1=C(C)Nc2ccccc2S1
inactive: ACHN > 100 µM | COLO 205 77.8 µM | HOP-62 > 100 µM | IGROV-1 > 100 µM | KM12 > 100 µM | LOX IMVI 94.8 µM | M14 > 100 µM | M19-MEL > 100 µM | NCI-H460 > 100 µM | OVCAR-5 > 100 µM | SF-539 > 100 µM | SK-MEL-5 > 100 µM | SNB-78 > 100 µM | SW-620 > 100 µM | UACC-62 3.21 µM | UO-31 > 100 µM
